Test [1] addresses cyclase (RINm5f membranes). As to the kind of experiment: Cyclase activation study (cAMP by SPA immunoassay, membranes). The format is biochemical. The note with it: cAMP in membranes, 20 minutes incubation at 37° C. Here is the method:
GLP-1(7-36) [NH2] was purchased from Bachem (Torrance, Calif.). All other peptides were prepared using synthesis methods such as those described therein. All chemicals were of the highest commercial grade. The cAMP SPA immunoassay was purchased from Amersham. The radioligands were purchased from New England Nuclear (Boston, Mass.). […] Cells were grown to confluence then harvested and homogenized using on a Polytron homogenizer. Cell homogenates were stored frozen at −70° C. until used. […] Membranes and peptides were combined in […] of assay buffer in 96 well filter-bottom plates (Millipore Corp., Bedford, Mass.). […] Supernatant cAMP contents were quantitated by SPA immunoassay. […] The biological activity of a particular sample was expressed as an EC50 value, calculated as described above.

In another test the test system is C57BLKS/J-m-db mice. The experiment in a line: Determination of blood glucose levels in db/db mice. The format is in vivo. Conditions: 1 μg subcutaneous, plasma glucose one hour after injection vs baseline.
The test system of test [2] is Harlan Sprague Dawley (HSD) rats. As to the kind of experiment: Gastric emptying in rats (phenol red gel gavage). It counts as in vivo. Conditions: for EC50 (gastric emptying): conscious male HSD rats, gastric contents remaining 20 min after gavage; for effect on gastric emptying (in words): male HSD rats, dose-response 0.1-100 μg. From the text: This experiment followed a modification of the method of Scarpignato, et al., Arch. Int. Pharmacodyn. […] Male Harlan Sprague Dawley (HSD) rats were used. […] ID. […] Twenty minutes after gavage, rats were anesthetized using 5% halothane, the stomach exposed and clamped at the pyloric and lower esophageal sphincters using artery forceps, removed and opened into an alkaline solution which was made up to a fixed volume. Stomach content was derived from the intensity of the phenol red in the alkaline solution, measured by absorbance at a wavelength of 560 nm. In separate experiments on 7 rats, the stomach and small intestine were both excised and opened into an alkaline solution. […] ID.

pEC50: −log10 of the molar value.

Consider `CC[C@H](C)[C@H](NC(=O)[C@H](Cc1ccccc1)NC(=O)[C@H](CC(C)C)NC(=O)[C@H](CCCNC(=N)N)NC(=O)[C@@H](NC(=O)[C@H](C)NC(=O)[C@H](CCC(=O)O)NC(=O)[C@H](CCC(=O)O)NC(=O)[C@H](CCC(=O)O)NC(=O)[C@H](CC(C)C)NC(=O)[C@H](CCC(N)=O)NC(=O)[C@H](C)NC(=O)[C@H](CO)NC(=O)[C@H](CC(C)C)NC(=O)[C@H](CC(=O)O)NC(=O)[C@H](CO)NC(=O)[C@@H](NC(=O)[C@H](Cc1ccccc1)NC(=O)[C@@H](NC(=O)CNC(=O)[C@H](CCC(=O)O)NC(=O)CNC(=O)[C@@H](N)Cc1c[nH]cn1)[C@@H](C)O)[C@@H](C)O)C(C)C)C(=O)N[C@@H](CCC(=O)O)C(=O)N[C@@H](Cc1ccccc1)C(=O)N[C@@H](CC(C)C)C(=O)N[C@@H](CCCCN)C(=O)N[C@@H](CC(N)=O)C(N)=O` [Compound 10], for which, in test [1], the pEC50 is 8.27. Moreover, the “% drop in glucose” value with C57BLKS/J-m-db mice stood at 46%. Also, in test [2], the “EC50 (gastric emptying)” value is 0.27 µg and the “effect on gastric emptying (in words)” value is given as “potent inhibitors of gastric emptying”.
In the same order, the values of `CC[C@H](C)[C@H](NC(=O)[C@H](Cc1ccccc1)NC(=O)[C@H](CC(C)C)NC(=O)[C@H](CCCNC(=N)N)NC(=O)[C@@H](NC(=O)[C@H](C)NC(=O)[C@H](CCC(=O)O)NC(=O)[C@H](CCC(=O)O)NC(=O)[C@H](C)NC(=O)[C@H](CC(C)C)NC(=O)[C@H](CCC(N)=O)NC(=O)[C@H](CCCCN)NC(=O)[C@H](CO)NC(=O)[C@H](CC(C)C)NC(=O)[C@H](CC(=O)O)NC(=O)[C@H](CO)NC(=O)[C@@H](NC(=O)[C@H](Cc1ccccc1)NC(=O)[C@@H](NC(=O)CNC(=O)[C@H](CCC(=O)O)NC(=O)CNC(=O)[C@@H](N)Cc1c[nH]cn1)[C@@H](C)O)[C@@H](C)O)C(C)C)C(=O)N[C@@H](CCC(=O)O)C(=O)N[C@@H](Cc1ccccc1)C(=O)N[C@@H](CC(C)C)C(=O)N[C@@H](CCCCN)C(=O)N[C@@H](CC(N)=O)C(N)=O` [Compound 13] are 7.10, 45%, 60 µg and “potent inhibitors of gastric emptying”.
With `CC[C@H](C)[C@H](NC(=O)[C@H](Cc1ccccc1)NC(=O)[C@H](CC(C)C)NC(=O)[C@H](CCCNC(=N)N)NC(=O)[C@H](C)NC(=O)[C@H](C)NC(=O)[C@H](CCC(=O)O)NC(=O)[C@H](CCC(=O)O)NC(=O)[C@H](CCC(=O)O)NC(=O)[C@H](CC(C)C)NC(=O)[C@H](CCC(N)=O)NC(=O)[C@H](CCCCN)NC(=O)[C@H](CO)NC(=O)[C@H](CC(C)C)NC(=O)[C@H](CC(=O)O)NC(=O)[C@H](CO)NC(=O)[C@@H](NC(=O)[C@H](Cc1ccccc1)NC(=O)[C@@H](NC(=O)CNC(=O)[C@H](CCC(=O)O)NC(=O)CNC(=O)[C@@H](N)Cc1c[nH]cn1)[C@@H](C)O)[C@@H](C)O)C(=O)N[C@@H](CCC(=O)O)C(=O)N[C@@H](Cc1ccccc1)C(=O)N[C@@H](CC(C)C)C(=O)N[C@@H](CCCCN)C(=O)N[C@@H](CC(N)=O)C(N)=O` [Compound 16], the pEC50 in test [1] was 8.29. Besides, the “% drop in glucose” value with C57BLKS/J-m-db mice amounted to 54%.
In the same order, the values of `CC[C@H](C)[C@H](NC(=O)[C@H](Cc1ccccc1)NC(=O)[C@H](CC(C)C)NC(=O)[C@H](C)NC(=O)[C@@H](NC(=O)[C@H](C)NC(=O)[C@H](CCC(=O)O)NC(=O)[C@H](CCC(=O)O)NC(=O)[C@H](CCC(=O)O)NC(=O)[C@H](CC(C)C)NC(=O)[C@H](CCC(N)=O)NC(=O)[C@H](CCCCN)NC(=O)[C@H](CO)NC(=O)[C@H](CC(C)C)NC(=O)[C@H](CC(=O)O)NC(=O)[C@H](CO)NC(=O)[C@@H](NC(=O)[C@H](Cc1ccccc1)NC(=O)[C@@H](NC(=O)CNC(=O)[C@H](CCC(=O)O)NC(=O)CNC(=O)[C@@H](N)Cc1c[nH]cn1)[C@@H](C)O)[C@@H](C)O)C(C)C)C(=O)N[C@@H](CCC(=O)O)C(=O)N[C@@H](Cc1ccccc1)C(=O)N[C@@H](CC(C)C)C(=O)N[C@@H](CCCCN)C(=O)N[C@@H](CC(N)=O)C(N)=O` [Compound 17] are 7.36 and 45%.
`CC[C@H](C)[C@H](NC(=O)[C@H](Cc1ccccc1)NC(=O)[C@H](C)NC(=O)[C@H](CCCNC(=N)N)NC(=O)[C@@H](NC(=O)[C@H](C)NC(=O)[C@H](CCC(=O)O)NC(=O)[C@H](CCC(=O)O)NC(=O)[C@H](CCC(=O)O)NC(=O)[C@H](CC(C)C)NC(=O)[C@H](CCC(N)=O)NC(=O)[C@H](CCCCN)NC(=O)[C@H](CO)NC(=O)[C@H](CC(C)C)NC(=O)[C@H](CC(=O)O)NC(=O)[C@H](CO)NC(=O)[C@@H](NC(=O)[C@H](Cc1ccccc1)NC(=O)[C@@H](NC(=O)CNC(=O)[C@H](CCC(=O)O)NC(=O)CNC(=O)[C@@H](N)Cc1c[nH]cn1)[C@@H](C)O)[C@@H](C)O)C(C)C)C(=O)N[C@@H](CCC(=O)O)C(=O)N[C@@H](Cc1ccccc1)C(=O)N[C@@H](CC(C)C)C(=O)N[C@@H](CCCCN)C(=O)N[C@@H](CC(N)=O)C(N)=O` [Compound 18] had a pEC50 in test [1] of 9.12. Besides, in the test on C57BLKS/J-m-db mice, the “% drop in glucose” value is given as 50%.

In general, pEC50 refers to −log10 of the EC50, conventionally taken in molar units. Lower therefore signals a large EC50.

(Values after patent publication US7696161B2, “Exendin agonist compounds” (Amylin Pharmaceuticals, Inc., priority 1997, dated 2010).)
